Measurements as given in patent US9821080B2 (priority 2011, dated 2017).

Key:
[1] = tested on: H1N1; set-up: species or system influenza virus A/Puerto Rico/8/1934 (H1N1)
[2] = tested on: ST cells; format: cell-based, swine

## fluorescein isothiocyanate [FITC]
[1]
  total fluorescence relative to H1N1 modified with 25 μg/ml FSL-FLRO4: about 9 times
[2]
  fewer labelled virions infecting cells compared with 25 μg/ml FSL-FLRO4 modified H1N1: 9 times
